# Patent US9630977B2, “Cephalosporin derivatives and pharmaceutical compositions thereof” (Legochem Biosciences, Inc., priority 2011, dated 2017)
# Test system: A. baumannii 49
# Assay: In vitro antibacterial activity test (broth microdilution)
# Format: cell-based
# Details: Acinetobacter baumannii, 49, A. baumannii 49
# Description: (§1) To evaluate antibacterial activity of each of the compounds of Examples 1 to 68, in vitro antibacterial activity test was performed.
# (§2) The in vitro antibacterial activity was evaluated by measuring MIC90 (ug/mL) of each of the compounds of Examples 1 to 68, which is defined as the lowest concentration of an antibiotic that will inhibit the visible growth of 90% of microorganisms after incubation as compared with a control group to which the antibiotic is not treated. MIC90 values were measured by the broth microdilution method developed by the Clinical and Laboratory Standards Institute (CLSI) (see CLSI M7-A5, Methods for Dilution Antimicrobial Susceptibility Test for Bacteria that Grow Aerobically-Fifth Edition (2000): CLSI, Villanova, Pa.).
# (§3) In vitro antibacterial activity was measured with respect to the following 19 clinical isolates: M. catarrhalis; P. aeruginosa (5 strains); K. pneumoniae (6 strains); A. baumannii (3 strains); E. coli (2 strains); A. calcoaceticus; and E. cloacae.
# (§4) Test compounds each (the cephalosporin derivative compounds prepared in Examples 1 to 68) were dissolved in DMSO at the concentration of 10,240 ug/mL, were diluted by two fold with DMSO, and then were diluted by twenty fold with sterilized distilled water. The final concentration in the antibacterial activity test was in the range of […] to 128 ug/mL, and the final concentration of DMSO used as an adjuvant was 2.5% (V/V).
row,SMILES,MIC90 [µg/mL]
1,CC(C)(O/N=C(\C(=O)N[C@@H]1C(=O)N2C(C(=O)[O-])=C(/C=C/C[n+]3cnc(N)c(NC(=O)CCCN)c3)CSC12)c1csc(N)n1)C(=O)O (stereo partly shown) [Compound 63],128

# Test system: A. calcoaceticus ATCC15473
# Assay: as above
# Format: cell-based
# Details: Acinetobacter calcoaceticus, ATCC15473, A. calcoaceticus ATCC15473
# Description: as §1, §2, §3, §4
row,SMILES,MIC90 [µg/mL]
1,CC(C)(O/N=C(\C(=O)N[C@@H]1C(=O)N2C(C(=O)[O-])=C(/C=C/C[n+]3cnc(N)c(NC(=O)CCCN)c3)CSC12)c1csc(N)n1)C(=O)O (stereo partly shown) [Compound 63],1

# Test system: K. pneumoniae 2011E
# Assay: as above
# Format: cell-based
# Details: Klebsiella pneumoniae, 2011E
# Description: as §1, §2, §3, §4
row,SMILES,MIC90 [µg/mL]
1,CC(C)(O/N=C(\C(=O)N[C@@H]1C(=O)N2C(C(=O)[O-])=C(/C=C/C[n+]3cnc(N)c(NC(=O)CCCN)c3)CSC12)c1csc(N)n1)C(=O)O (stereo partly shown) [Compound 63],0.25

# Test system: K. pneumoniae β11
# Assay: as above
# Format: cell-based
# Details: Klebsiella pneumoniae
# Description: as §1, §2, §3, §4
row,SMILES,MIC90 [µg/mL]
1,CC(C)(O/N=C(\C(=O)N[C@@H]1C(=O)N2C(C(=O)[O-])=C(/C=C/C[n+]3cnc(N)c(NC(=O)CCCN)c3)CSC12)c1csc(N)n1)C(=O)O (stereo partly shown) [Compound 63],32

# Test system: P. aeruginosa 43
# Assay: as above
# Format: cell-based
# Details: Pseudomonas aeruginosa, 43
# Description: as §1, §2, §3, §4
row,SMILES,MIC90 [µg/mL]
1,CC(C)(O/N=C(\C(=O)N[C@@H]1C(=O)N2C(C(=O)[O-])=C(/C=C/C[n+]3cnc(N)c(NC(=O)CCCN)c3)CSC12)c1csc(N)n1)C(=O)O (stereo partly shown) [Compound 63],128

# Test system: E. cloacae β19
# Assay: as above
# Format: cell-based
# Details: Enterobacter cloacae
# Description: as §1, §2, §3, §4
row,SMILES,MIC90 [µg/mL]
1,CC(C)(O/N=C(\C(=O)N[C@@H]1C(=O)N2C(C(=O)[O-])=C(/C=C/C[n+]3cnc(N)c(NC(=O)CCCN)c3)CSC12)c1csc(N)n1)C(=O)O (stereo partly shown) [Compound 63],16

# Test system: P. aeruginosa 37
# Assay: as above
# Format: cell-based
# Details: Pseudomonas aeruginosa, 37, P. aeruginosa 37
# Description: as §1, §2, §3, §4
row,SMILES,MIC90 [µg/mL]
1,CC(C)(O/N=C(\C(=O)N[C@@H]1C(=O)N2C(C(=O)[O-])=C(/C=C/C[n+]3cnc(N)c(NC(=O)CCCN)c3)CSC12)c1csc(N)n1)C(=O)O (stereo partly shown) [Compound 63],32

# Test system: E. coli AG100
# Assay: as above
# Format: cell-based
# Details: Escherichia coli, AG100
# Description: as §1, §2, §3, §4
row,SMILES,MIC90 [µg/mL]
1,CC(C)(O/N=C(\C(=O)N[C@@H]1C(=O)N2C(C(=O)[O-])=C(/C=C/C[n+]3cnc(N)c(NC(=O)CCCN)c3)CSC12)c1csc(N)n1)C(=O)O (stereo partly shown) [Compound 63],0.125

# Test system: P. aeruginosa 40
# Assay: as above
# Format: cell-based
# Details: Pseudomonas aeruginosa, 40
# Description: as §1, §2, §3, §4
row,SMILES,MIC90 [µg/mL]
1,CC(C)(O/N=C(\C(=O)N[C@@H]1C(=O)N2C(C(=O)[O-])=C(/C=C/C[n+]3cnc(N)c(NC(=O)CCCN)c3)CSC12)c1csc(N)n1)C(=O)O (stereo partly shown) [Compound 63],4

# Test system: K. pneumoniae β9
# Assay: as above
# Format: cell-based
# Details: Klebsiella pneumoniae
# Description: as §1, §2, §3, §4
row,SMILES,MIC90 [µg/mL]
1,CC(C)(O/N=C(\C(=O)N[C@@H]1C(=O)N2C(C(=O)[O-])=C(/C=C/C[n+]3cnc(N)c(NC(=O)CCCN)c3)CSC12)c1csc(N)n1)C(=O)O (stereo partly shown) [Compound 63],1

# Test system: A. baumannii 52
# Assay: as above
# Format: cell-based
# Details: Acinetobacter baumannii, 52
# Description: as §1, §2, §3, §4
row,SMILES,MIC90 [µg/mL]
1,CC(C)(O/N=C(\C(=O)N[C@@H]1C(=O)N2C(C(=O)[O-])=C(/C=C/C[n+]3cnc(N)c(NC(=O)CCCN)c3)CSC12)c1csc(N)n1)C(=O)O (stereo partly shown) [Compound 63],128

# Test system: A. baumannii 46
# Assay: as above
# Format: cell-based
# Details: Acinetobacter baumannii, 46, A. baumannii 46
# Description: as §1, §2, §3, §4
row,SMILES,MIC90 [µg/mL]
1,CC(C)(O/N=C(\C(=O)N[C@@H]1C(=O)N2C(C(=O)[O-])=C(/C=C/C[n+]3cnc(N)c(NC(=O)CCCN)c3)CSC12)c1csc(N)n1)C(=O)O (stereo partly shown) [Compound 63],8

# Test system: M. catarrhalis 2524
# Assay: as above
# Format: cell-based
# Details: Moraxella catarrhalis, 2524
# Description: as §1, §2, §3, §4
row,SMILES,MIC90 [µg/mL]
1,CC(C)(O/N=C(\C(=O)N[C@@H]1C(=O)N2C(C(=O)[O-])=C(/C=C/C[n+]3cnc(N)c(NC(=O)CCCN)c3)CSC12)c1csc(N)n1)C(=O)O (stereo partly shown) [Compound 63],< 0.0625

# Test system: P. aeruginosa 1912E
# Assay: as above
# Format: cell-based
# Details: Pseudomonas aeruginosa, 1912E
# Description: as §1, §2, §3, §4
row,SMILES,MIC90 [µg/mL]
1,CC(C)(O/N=C(\C(=O)N[C@@H]1C(=O)N2C(C(=O)[O-])=C(/C=C/C[n+]3cnc(N)c(NC(=O)CCCN)c3)CSC12)c1csc(N)n1)C(=O)O (stereo partly shown) [Compound 63],2

# Test system: K. pneumoniae β13
# Assay: as above
# Format: cell-based
# Details: Klebsiella pneumoniae
# Description: as §1, §2, §3, §4
row,SMILES,MIC90 [µg/mL]
1,CC(C)(O/N=C(\C(=O)N[C@@H]1C(=O)N2C(C(=O)[O-])=C(/C=C/C[n+]3cnc(N)c(NC(=O)CCCN)c3)CSC12)c1csc(N)n1)C(=O)O (stereo partly shown) [Compound 63],1

# Test system: K. pneumoniae β10
# Assay: as above
# Format: cell-based
# Details: Klebsiella pneumoniae
# Description: as §1, §2, §3, §4
row,SMILES,MIC90 [µg/mL]
1,CC(C)(O/N=C(\C(=O)N[C@@H]1C(=O)N2C(C(=O)[O-])=C(/C=C/C[n+]3cnc(N)c(NC(=O)CCCN)c3)CSC12)c1csc(N)n1)C(=O)O (stereo partly shown) [Compound 63],0.5

# Test system: E. coli β4
# Assay: as above
# Format: cell-based
# Details: Escherichia coli
# Description: as §1, §2, §3, §4
row,SMILES,MIC90 [µg/mL]
1,CC(C)(O/N=C(\C(=O)N[C@@H]1C(=O)N2C(C(=O)[O-])=C(/C=C/C[n+]3cnc(N)c(NC(=O)CCCN)c3)CSC12)c1csc(N)n1)C(=O)O (stereo partly shown) [Compound 63],0.25

# Test system: K. pneumoniae β14
# Assay: as above
# Format: cell-based
# Details: Klebsiella pneumoniae
# Description: as §1, §2, §3, §4
row,SMILES,MIC90 [µg/mL]
1,CC(C)(O/N=C(\C(=O)N[C@@H]1C(=O)N2C(C(=O)[O-])=C(/C=C/C[n+]3cnc(N)c(NC(=O)CCCN)c3)CSC12)c1csc(N)n1)C(=O)O (stereo partly shown) [Compound 63],1

# Test system: P. aeruginosa 6065Y
# Assay: as above
# Format: cell-based
# Details: Pseudomonas aeruginosa, 6065Y
# Description: as §1, §2, §3, §4
row,SMILES,MIC90 [µg/mL]
1,CC(C)(O/N=C(\C(=O)N[C@@H]1C(=O)N2C(C(=O)[O-])=C(/C=C/C[n+]3cnc(N)c(NC(=O)CCCN)c3)CSC12)c1csc(N)n1)C(=O)O (stereo partly shown) [Compound 63],16
